Results on 18 molecules are retold here after patent US20230072683A1, “PYRIDO-PYRIMIDIN DERIVATIVES AND PHARMACEUTICAL COMPOSITION, FOR USE IN PREVENTING OR TREATING PI3 KINASE RELATED DISEASES, COMPRISING SAME AS ACTIVE INGREDIENT” (BORYUNG PHARMACEUTICAL CO., LTD, priority 2019, published 2023).

Experiment [1] has as its target PI3K-δ (PI3K(p1108/p857) (h)) (Homo sapiens, UniProt O00329). The experiment can be described thus: Evaluation of inhibitory activity against PI3K-δ (HTRF kinase assay). The following applies: for inhibition at 0.01 µM: compound concentration 0.01 μM, read-out: EXP_VALUE(% Inhibition) PI3K-δ 0.01 μM; for inhibition at 0.1 µM: compound concentration 0.1 μM, read-out: EXP_VALUE(% Inhibition) PI3K-δ 0.1 μM. The class given is biochemical. On the procedure: <Experimental Example 1> Evaluation of Inhibitory Activity Properties Against PI3K-δ
The following experiments were performed to verify the inhibitory activity against PI3K-δ with regard to each of the compounds of Examples 1 to 441 according to the present invention.
PI3K(p1108/p857) (h) was incubated in assay buffer comprising 10 μM phosphatidylinositol-4,5-bisphosphate and Mg/ATP (at a concentration as required). The reaction was initiated by the addition of a Mg/ATP mixture, and after incubation for 30 minutes at room temperature, a stop solution comprising EDTA and phosphatidylinositol-3,4,5-triphosphate was added to stop the reaction and carry out biotinylation.
A detection buffer comprising Eu (europium)-labelled anti-GST monoclonal antibody, GST-tagged GRP1 PH domain and streptavidin-allophycocyanin was added. A plate was read in a time-resolved fluorescence mode and a homogeneous time-resolved fluorescence (HTRF) signal was determined according to HTRF=10000×(Em 665 nm/Em 620 nm).
(In general: In TR-FRET formats the signal depends on donor and acceptor labels being close together.)

The target of a further experiment is DNA-PK(h) (Homo sapiens, UniProt P78527). The experiment can be described thus: Evaluation of inhibitory activity against DNA-PK (HTRF kinase assay, GST-cMyc-p53 substrate). Type of experiment: biochemical. To be noted: for inhibition at 0.01 µM: compound concentration 0.01 μM, read-out: EXP_VALUE(% Inhibition) DNA-PK(h) 0.01 μM; for inhibition at 0.1 µM: compound concentration 0.1 μM, read-out: EXP_VALUE(% Inhibition) DNA-PK(h) 0.1 μM. On the procedure:
<Experimental Example 2> Evaluation of Inhibitory Activity Properties Against DNA-PK
The following experiments were performed to verify the inhibitory activity against DNA-PK with regard to each of the compounds of Examples 1 to 441 according to the present invention.
DNA-PK(h) was subjected to an isothermal treatment in an assay buffer comprising […] GST-cMyc-p53 and Mg/ATP (at a concentration as required). The reaction was initiated by the addition of a Mg/ATP mixture, and after incubation for 30 minutes at room temperature, a stop solution comprising EDTA was added to stop the reaction. A detection buffer comprising d2-labelled anti-GST monoclonal antibody and Europium-labelled anti-phospho Ser15 antibody for phosphorylated p53 was added. A plate was read in a time-resolved fluorescence mode and a homogeneous time-resolved fluorescence (HTRF) signal was determined according to HTRF=10000×(Em 665 nm/Em 620 nm).

PI3K-δ (PI3K(p1108/p857) (h)), sequence (O00329 whole entry): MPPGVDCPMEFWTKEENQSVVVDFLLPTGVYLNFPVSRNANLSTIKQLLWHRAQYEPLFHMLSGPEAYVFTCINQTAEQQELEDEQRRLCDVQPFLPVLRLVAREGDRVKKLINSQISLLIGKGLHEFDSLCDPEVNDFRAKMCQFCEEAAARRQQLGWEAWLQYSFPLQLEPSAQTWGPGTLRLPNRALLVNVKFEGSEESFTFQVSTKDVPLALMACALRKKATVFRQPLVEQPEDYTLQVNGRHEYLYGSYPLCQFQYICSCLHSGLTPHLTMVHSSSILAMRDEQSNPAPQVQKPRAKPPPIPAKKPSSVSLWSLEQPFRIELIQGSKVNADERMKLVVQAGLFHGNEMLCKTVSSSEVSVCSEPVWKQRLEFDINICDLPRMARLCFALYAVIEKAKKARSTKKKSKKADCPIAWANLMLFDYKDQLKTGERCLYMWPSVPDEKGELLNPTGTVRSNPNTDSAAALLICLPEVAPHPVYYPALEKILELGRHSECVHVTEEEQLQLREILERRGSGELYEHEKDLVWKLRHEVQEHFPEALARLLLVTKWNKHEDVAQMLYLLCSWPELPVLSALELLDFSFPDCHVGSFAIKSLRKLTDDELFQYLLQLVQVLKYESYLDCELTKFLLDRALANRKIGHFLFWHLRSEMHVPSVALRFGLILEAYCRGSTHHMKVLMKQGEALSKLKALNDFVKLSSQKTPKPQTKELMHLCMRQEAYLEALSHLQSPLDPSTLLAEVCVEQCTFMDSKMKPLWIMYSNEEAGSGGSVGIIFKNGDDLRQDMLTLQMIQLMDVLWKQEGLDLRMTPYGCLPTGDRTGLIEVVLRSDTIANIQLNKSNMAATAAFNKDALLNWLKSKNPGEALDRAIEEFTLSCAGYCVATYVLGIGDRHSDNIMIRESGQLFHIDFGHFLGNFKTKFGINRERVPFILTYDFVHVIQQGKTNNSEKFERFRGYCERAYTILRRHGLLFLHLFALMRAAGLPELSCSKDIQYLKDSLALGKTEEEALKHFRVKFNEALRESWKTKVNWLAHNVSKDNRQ
PI3K-δ (PI3K(p1108/p857) (h)), sequence (P27986 whole entry partner): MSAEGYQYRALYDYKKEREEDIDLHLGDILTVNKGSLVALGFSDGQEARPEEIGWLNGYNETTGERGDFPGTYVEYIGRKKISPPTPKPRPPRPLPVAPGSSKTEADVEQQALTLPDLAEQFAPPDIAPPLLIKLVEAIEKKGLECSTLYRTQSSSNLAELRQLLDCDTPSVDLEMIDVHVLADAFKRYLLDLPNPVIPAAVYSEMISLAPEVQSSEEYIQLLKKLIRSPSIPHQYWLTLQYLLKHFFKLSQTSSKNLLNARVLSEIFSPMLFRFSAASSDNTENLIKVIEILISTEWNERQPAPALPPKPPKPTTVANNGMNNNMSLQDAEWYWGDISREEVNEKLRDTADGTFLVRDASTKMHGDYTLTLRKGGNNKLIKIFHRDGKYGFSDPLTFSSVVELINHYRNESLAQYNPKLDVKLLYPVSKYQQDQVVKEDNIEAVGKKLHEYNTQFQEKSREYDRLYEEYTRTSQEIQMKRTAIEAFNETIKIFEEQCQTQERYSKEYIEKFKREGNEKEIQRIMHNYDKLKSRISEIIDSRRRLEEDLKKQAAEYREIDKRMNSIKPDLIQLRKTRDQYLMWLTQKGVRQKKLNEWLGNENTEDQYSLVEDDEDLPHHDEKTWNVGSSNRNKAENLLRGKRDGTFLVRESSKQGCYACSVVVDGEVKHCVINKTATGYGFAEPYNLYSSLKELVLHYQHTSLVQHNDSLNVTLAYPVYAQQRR

On to `C[C@H](Nc1ncnc2[nH]ccc(=O)c12)c1c(Br)c2cccc(-c3ccc(N(C)C)cc3)c2c(=O)n1-c1ccccc1` [Example 16, (S)-4-((1-(4-bromo-8-(4-(dimethylamino)phenyl)-1-oxo-2-phenyl-1,2-dihydroisoquinolin-3-yl)ethyl)amino)pyrido[2,3-d]pyrimidin-5(8H)-one], for which, in experiment [1], the inhibition – broadly, the drop in the measured response relative to a control, in per cent – at 0.01 µM was 51% and the inhibition at 0.1 µM stood at 88%. Besides, on DNA-PK(h), the inhibition at 0.01 µM stood at 7% and the inhibition at 0.1 µM was 53%.
Regarding `Cc1ccc(-c2cccc3c(Br)c([C@H](C)Nc4ncnc5[nH]ccc(=O)c45)n(-c4ccccc4)c(=O)c23)cn1` [Example 17, (S)-4-((1-(4-bromo-8-(6-methylpyridin-3-yl)-1-oxo-2-phenyl-1,2-dihydroisoquinolin-3-yl)ethyl)amino)pyrido[2,3-d]pyrimidin-5(8H)-one], the values for the inhibition at 0.01 µM (in experiment [1]; at DNA-PK(h)) were 99% and 70%, respectively. In addition, the inhibition at 0.1 µM came to 97% in experiment [1] and 94% at DNA-PK(h).
The corresponding values for `C[C@H](Nc1ncnc2[nH]ccc(=O)c12)c1c(Br)c2cccc(-c3ccc(F)cc3)c2c(=O)n1-c1ccccc1` [Example 18, (S)-4-((1-(4-bromo-8-(4-fluorophenyl)-1-oxo-2-phenyl-1,2-dihydroisoquinolin-3-yl)ethyl)amino)pyrido[2,3-d]pyrimidin-5(8H)-one] are 80%, 75%, 96% and 98%.
The corresponding values for `C[C@H](Nc1ncnc2[nH]ccc(=O)c12)c1c(Br)c2cccc(-c3cnn(C)c3)c2c(=O)n1-c1ccccc1` [Example 19, (S)-4-((1-(4-bromo-8-(1-methyl-1H-pyrazol-4-yl)-1-oxo-2-phenyl-1,2-dihydroisoquinolin-3-yl)ethyl)amino)pyrido[2,3-d]pyrimidin-5(8H)-one] are 89%, 78%, 102% and 98%.
Consider `C[C@H](Nc1ncnc2[nH]ccc(=O)c12)c1cc2cccc(-c3ccc(N(C)C)cc3)c2c(=O)n1-c1ccccc1` [Example 20, (S)-4-((1-(8-(4-(dimethylamino)phenyl)-1-oxo-2-phenyl-1,2-dihydroisoquinolin-3-yl)ethyl)amino)pyrido[2,3-d]pyrimidin-5(8H)-one], for which, in experiment [1], the inhibition at 0.01 µM came out at 67% and the inhibition at 0.1 µM is 95%. At DNA-PK(h), the inhibition at 0.01 µM came to 3% and the inhibition at 0.1 µM amounted to 55%.
The corresponding values for `C[C@H](Nc1ncnc2[nH]ccc(=O)c12)c1c(Cl)c2cccc(-c3ccc4[nH]c(=O)[nH]c4c3)c2c(=O)n1-c1ccccc1` [Example 21, (S)-4-((1-(4-chloro-1-oxo-8-(2-oxo-2,3-dihydro-1H-benzo[d]imidazol-5-yl)-2-phenyl-1,2-dihydroisoquinolin-3-yl)ethyl)amino)pyrido[2,3-d]pyrimidin-5(8H)-one] are 90%, 99%, 69% and 95%.
The corresponding values for `Cc1nc2ccc(-c3cccc4c(Cl)c([C@H](C)Nc5ncnc6[nH]ccc(=O)c56)n(-c5ccccc5)c(=O)c34)cc2o1` [Example 22, (S)-4-((1-(4-chloro-8-(2-methylbenzo[d]oxazol-6-yl)-1-oxo-2-phenyl-1,2-dihydroisoquinolin-3-yl)ethyl)amino)pyrido[2,3-d]pyrimidin-5(8H)-one] are 89%, 93%, 69% and 97%.
For `C[C@H](Nc1ncnc2[nH]ccc(=O)c12)c1cc2cccc(-c3ccc(C#N)cc3)c2c(=O)n1-c1ccccc1` [Example 23, (S)-4-(1-oxo-3-(1-((5-oxo-5,8-dihydropyrido[2,3-d]pyrimidin-4-yl)amino)ethyl)-2-phenyl-1,2-dihydroisoquinolin-8-yl)benzonitrile], the inhibition at 0.01 µM in experiment [1] was found to be 82%; on DNA-PK(h), 38%. Further, the inhibition at 0.1 µM in experiment [1] turned out to be 96%; on DNA-PK(h) it was 85%.
As to `C[C@H](Nc1ncnc2[nH]ccc(=O)c12)c1c(Cl)c2cccc(-c3ccc4cnoc4c3)c2c(=O)n1-c1ccccc1` [Example 24, (S)-4-((1-(8-(benzo[d]isoxazol-6-yl)-4-chloro-1-oxo-2-phenyl-1,2-dihydroisoquinolin-3-yl)ethyl)amino)pyrido[2,3-d]pyrimidin-5(8H)-one], the inhibition at 0.01 µM was determined as 61% in experiment [1] and 85% at DNA-PK(h).
The matching figures for `C[C@H](Nc1ncnc2[nH]ccc(=O)c12)c1c(Cl)c2cccc(-c3cnc4[nH]ccc4c3)c2c(=O)n1-c1ccccc1` [Example 25, (S)-4-((1-(4-chloro-1-oxo-2-phenyl-8-(1H-pyrrolo[2,3-b]pyridin-5-yl)-1,2-dihydroisoquinolin-3-yl)ethyl)amino)pyrido[2,3-d]pyrimidin-5(8H)-one]: 6% and 7%.
The corresponding values for `C[C@H](Nc1ncnc2[nH]ccc(=O)c12)c1c(Cl)c2cccc(-c3cnc(C(C)(C)O)nc3)c2c(=O)n1-c1ccccc1` [Example 26, (S)-4-((1-(4-chloro-8-(2-(2-hydroxypropan-2-yl)pyrimidin-5-yl)-1-oxo-2-phenyl-1,2-dihydroisoquinolin-3-yl)ethyl)amino)pyrido[2,3-d]pyrimidin-5(8H)-one] are 92% and 66%.
The matching figures for `C[C@H](Nc1ncnc2[nH]ccc(=O)c12)c1c(Cl)c2cccc(-c3cc4[nH]ncc4cn3)c2c(=O)n1-c1ccccc1` [Example 27, (S)-4-((1-(4-chloro-1-oxo-2-phenyl-8-(1H-pyrazolo[4,3-c]pyridin-6-yl)-1,2-dihydroisoquinolin-3-yl)ethyl)amino)pyrido[2,3-d]pyrimidin-5(8H)-one]: 76% and 34%.
In the case of `COc1ncc(-c2cccc3c(Cl)c([C@H](C)Nc4ncnc5[nH]ccc(=O)c45)n(-c4ccccc4)c(=O)c23)nc1OC` [Example 28, (S)-4-((1-(4-chloro-8-(5,6-dimethoxypyrazin-2-yl)-1-oxo-2-phenyl-1,2-dihydroisoquinolin-3-yl)ethyl)amino)pyrido[2,3-d]pyrimidin-5(8H)-one], the values for the inhibition at 0.01 µM (in experiment [1]; at DNA-PK(h)) were 69% and 61%, respectively.
Consider `C[C@H](Nc1ncnc2[nH]ccc(=O)c12)c1c(Cl)c2cccc(-c3ccc(-c4nccs4)cc3)c2c(=O)n1-c1ccccc1` [Example 29, (S)-4-((1-(4-chloro-1-oxo-2-phenyl-8-(4-(thiazol-2-yl)phenyl)-1,2-dihydroisoquinolin-3-yl)ethyl)amino)pyrido[2,3-d]pyrimidin-5(8H)-one], for which the inhibition at 0.01 µM in experiment [1] is 70%; at DNA-PK(h), 99%.
With `COc1cnc(-c2cccc3c(Cl)c([C@H](C)Nc4ncnc5[nH]ccc(=O)c45)n(-c4ccccc4)c(=O)c23)nc1` [Example 30, (S)-4-((1-(4-chloro-8-(5-methoxypyrimidin-2-yl)-1-oxo-2-phenyl-1,2-dihydroisoquinolin-3-yl)ethyl)amino)pyrido[2,3-d]pyrimidin-5(8H)-one], the figures for the inhibition at 0.01 µM (in experiment [1]; at DNA-PK(h)) were 12% and 101%, respectively.
The corresponding values for `C[C@H](Nc1ncnc2[nH]ccc(=O)c12)c1c(Cl)c2cccc(-c3ccc(C#N)cn3)c2c(=O)n1-c1ccccc1` [Example 31, (S)-6-(4-chloro-1-oxo-3-(1-((5-oxo-5,8-dihydropyrido[2,3-d]pyrimidin-4-yl)amino)ethyl)-2-phenyl-1,2-dihydroisoquinolin-8-yl) nicotinonitrile] are 0% and 2%.
The corresponding values for `C[C@H](Nc1ncnc2[nH]ccc(=O)c12)c1c(Cl)c2cccc(-c3ccc4ncncc4c3)c2c(=O)n1-c1ccccc1` [Example 32, (S)-4-((1-(4-chloro-1-oxo-2-phenyl-8-(quinazolin-6-yl)-1,2-dihydroisoquinolin-3-yl)ethyl)amino)pyrido[2,3-d]pyrimidin-5(8H)-one] are 96% and 75%.
The corresponding values for `C[C@H](Nc1ncnc2[nH]ccc(=O)c12)c1c(Cl)c2cccc(-c3ccc(-c4ccon4)cc3)c2c(=O)n1-c1ccccc1` [Example 33, (S)-4-((1-(4-chloro-8-(4-(isoxazol-3-yl)phenyl)-1-oxo-2-phenyl-1,2-dihydroisoquinolin-3-yl)ethyl)amino)pyrido[2,3-d]pyrimidin-5(8H)-one] are 92% and 48%.
